15 molecules from US8268996B2, “Compounds and compositions as cathepsin S inhibitors” (IRM LLC, priority 2004, dated 2012) can be followed below.

Holding throughout (type): biochemical
For one experiment, the target named is Cathepsin L (Homo sapiens, UniProt P07711). Put plainly: Cathepsin L Assay. The following applies: for Ki: pH5.5, 20 minutes incubation at room temperature, substrate 20 μM, fluorescence. The procedure: (§1) Kinetic measurements are performed in a total reaction volume of 30 μl in 384-well microtiter plates. […] Control reactions in the absence of inhibitor are performed in replicates of 24. The reactions are initiated by adding the substrate, acetyl-histidine-lysine-phenylalanine-lysine-amino […] coumarin, to a final concentration of 20 μM. The rate of substrate hydrolysis is measured by monitoring the increase in fluorescence at an excitation wavelength of 380 nm and an emission wavelength of 450 nm that results from cleavage of the aniline bond in the substrate by the enzyme. The apparent inhibition constants for the compounds are determined from the enzyme progress curves and are then used to calculate the inhibition constants for competitive inhibitors.
Chain of Cathepsin L (P07711 114-333, species assumed): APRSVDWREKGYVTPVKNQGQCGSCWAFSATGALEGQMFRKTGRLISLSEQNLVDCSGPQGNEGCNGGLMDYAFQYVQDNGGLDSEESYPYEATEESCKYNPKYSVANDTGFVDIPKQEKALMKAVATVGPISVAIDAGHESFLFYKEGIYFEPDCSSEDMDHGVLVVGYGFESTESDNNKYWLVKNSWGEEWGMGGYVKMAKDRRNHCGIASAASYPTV

For another experiment, the target named is Cathepsin S (Homo sapiens, UniProt P25774). Put plainly: Cathepsin S Assay. The procedure:
as §1, with “acetyl-histidine-proline-valine-lysine-amino” for “acetyl-histidine-lysine-phenylalanine-lysine-amino”, “50” for “20”

In another experiment the target is T1, Cathepsin K (Homo sapiens, UniProt P43235).
T1 sequence (P43235 115-329): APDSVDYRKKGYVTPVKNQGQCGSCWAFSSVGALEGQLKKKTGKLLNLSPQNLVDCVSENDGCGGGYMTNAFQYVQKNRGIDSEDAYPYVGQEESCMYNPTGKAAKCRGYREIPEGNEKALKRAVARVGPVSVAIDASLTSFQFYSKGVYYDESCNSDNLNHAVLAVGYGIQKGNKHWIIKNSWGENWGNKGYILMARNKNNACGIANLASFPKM
Put plainly: Cathepsin K Assay. The following applies: for Ki: pH5.5, 20 minutes incubation at room temperature, substrate 40 μM, fluorescence. As for the experimental part: as §1, with “acetyl-lysine-histidine-proline-lysine-amino” for “acetyl-histidine-lysine-phenylalanine-lysine-amino”, “40” for “20”

The target in the next experiment is Cathepsin B (Homo sapiens, UniProt P07858). Put plainly: Cathepsin B Assay. The following applies: for Ki: pH5.5, 20 minutes incubation at room temperature, substrate 10 μM, fluorescence. As for the experimental part: as §1, with “acetyl-histidine-proline-valine-lysine-amino” for “acetyl-histidine-lysine-phenylalanine-lysine-amino”, “10” for “20”
Where [1] appears, read: ratio of isozyme inhibition constant to cathepsin S inhibition constant.

Molecules are shown by their SMILES. Bounds are passed on as bounds.

Chain of Cathepsin S (P25774 115-331): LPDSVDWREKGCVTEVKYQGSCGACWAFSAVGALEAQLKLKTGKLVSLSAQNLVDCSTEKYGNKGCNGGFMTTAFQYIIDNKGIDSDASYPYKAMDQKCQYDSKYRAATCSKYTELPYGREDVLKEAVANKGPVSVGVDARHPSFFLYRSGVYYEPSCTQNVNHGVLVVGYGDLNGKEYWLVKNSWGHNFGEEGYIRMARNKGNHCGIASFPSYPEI

On to `O=C(N[C@H](C(=O)c1nc2ccccc2o1)C1CC1)O[C@@H](CC1CCCCC1)C(=O)N1CCOCC1` [Example 1, 2-cyclohexyl-(1S)-(morpholine-4-carbonyl)ethyl 2-(benzooxazol-2-yl)-(1S)-cyclopropyl-2-oxo-ethyl carbamate], for which the Ki (commonly the dissociation constant of the complex between target and ligand, obtained from inhibition or displacement) at Cathepsin L is above 23300 nM; on Cathepsin S, 6.6 nM; on Cathepsin K, 5160 nM; at Cathepsin B, above 47500 nM. In addition, the “selectivity for cathepsin S over cathepsin L” value on Cathepsin L (setting [1]) was “at least 100 fold”. It took 6.6 nM to reach half-maximal inhibition at Cathepsin S (IC50). The “selectivity for cathepsin S over cathepsin K” value at Cathepsin K (setting [1]) is reported as “at least 100 fold”. Besides, the “selectivity for cathepsin S over cathepsin B” value on Cathepsin B (setting [1]) was “at least 100 fold”.
In the case of `C[C@H](NC(=O)O[C@@H](CS(=O)(=O)Cc1ccccc1)C(=O)N1CCOCC1)C(=O)c1nc2ccccc2o1` [Example 2, 2-phenylmethanesulfonyl-(1R)-(morpholine-4-carbonyl)ethyl 2-(benzoxazol-2-yl)-(1S)-methyl-2-oxo-ethyl carbamate], the Ki on Cathepsin L is above 100000 nM; on Cathepsin S, 488 nM; on Cathepsin K, above 100000 nM; at Cathepsin B, above 100000 nM.
Turning to `O=C(N[C@H]1COCC1=O)O[C@@H](CC1CCCCC1)C(=O)N1CCOCC1` [Example 5, 2-cyclohexyl-(1S)-(morpholine-4-carbonyl)ethyl 4-oxo-tetrahydro-furan-(3S)-yl carbamate], the Ki was above 100000 nM at Cathepsin L, 892 nM on Cathepsin S, above 30000 nM at Cathepsin K and above 100000 nM at Cathepsin B.
As to `N#C[C@H](COCc1ccccc1Cl)NC(=O)O[C@@H](CC1CCCCC1)C(=O)N1CCOCC1` [Example 8, (1S)-cyclohexylmethyl-2-morpholin-4-yl-2-oxo-ethyl 2-(2-chloro-benzyloxy)-(1R)-cyano-ethyl carbamate], the inhibition constant (Ki) at Cathepsin L is above 22600 nM; on Cathepsin S, 31.4 nM; on Cathepsin K, 13800 nM; at Cathepsin B it was above 30000 nM.
With `CCC[C@H](NC(=O)O[C@@H](CC1CCCCC1)C(=O)N1CCCC1)C(=O)c1nc2ccccc2o1` [Example 27, (1S)-cyclohexylmethyl-2-oxo-2-(pyrrolidin-1-yl)-ethyl(1S)-(benzoxazole-2-carbonyl)-butyl carbamate], the inhibition constant Ki on Cathepsin L is 2030 nM; at Cathepsin S, 0.8 nM; on Cathepsin K, 211 nM; at Cathepsin B, 5700 nM.
In the same order, the values of `CC[C@H](NC(=O)O[C@@H](CC1CCCCC1)C(=O)N1CCOCC1)C(=O)c1nc2cccnc2o1` [Example 39, 2-cyclohexyl-(1S)-(morpholine-4-carbonyl)ethyl(1S)-(oxazolo[5,4-b]pyridine-2-carbonyl)-propyl carbamate] are 1310 nM, 0.4 nM, 260 nM and 5220 nM.
On to `O=C(N[C@H](C(=O)c1nc2ccc(F)cc2o1)C1CC1)O[C@@H](CC1CCCCC1)C(=O)N1CCOCC1` [Example 40, 2-cyclohexyl-(1S)-(morpholine-4-carbonyl)ethyl(1S)-cyclopropyl-2-(6-fluoro-benzoxazol-2-yl)-2-oxo-ethyl carbamate], for which the Ki at Cathepsin L was 15300 nM; at Cathepsin S it was 2.1 nM; on Cathepsin K, 2130 nM; at Cathepsin B, above 30000 nM.
On to `CC[C@H](NC(=O)O[C@H](C(=O)N1CCOCC1)C1CCCCC1)C(=O)c1nc2ccc(F)cc2o1` [Example 42, (1S)-cyclohexyl-1-(morpholine-4-carbonyl)methyl(1S)-(6-fluoro-benzoxazole-2-carbonyl)-propyl carbamate], for which the inhibition constant Ki was determined as 9500 nM on Cathepsin L, 4.6 nM on Cathepsin S, 278 nM on Cathepsin K and 16700 nM on Cathepsin B.
`CC[C@H](NC(=O)O[C@@H](CC1CCCCC1)C(=O)N(C)C)C(=O)c1nc2ccccc2o1` [Example 43, 2-cyclohexyl-(1S)-dimethylcarbamoyl-ethyl(1S)-(benzoxazole-2-carbonyl)-propyl carbamate]: the inhibition constant Ki on Cathepsin L is 4650 nM; on Cathepsin S, 3.6 nM; on Cathepsin K, 250 nM; at Cathepsin B it was 16000 nM.
The corresponding values for `CCC[C@H](NC(=O)O[C@@H](CC1CCCCC1)C(=O)N1CCOCC1)C(=O)c1nc2ccc(F)cc2o1` [Example 44, 2-cyclohexyl-(1S)-(morpholine-4-carbonyl)ethyl(1S)-(6-fluoro-benzoxazole-2-carbonyl)-butyl carbamate] are 3610 nM, 0.5 nM, 483 nM and 9700 nM.
In the same order, the values of `CCC[C@H](NC(=O)O[C@H](C(=O)N1CCOCC1)C1CCCCC1)C(=O)c1nc2ccccc2o1` [Example 46, (1S)-cyclohexyl-1-(morpholine-4-carbonyl)methyl(1S)-(benzoxazole-2-carbonyl)-butyl carbamate] are 2210 nM, 1.6 nM, 113 nM and 4040 nM.
The corresponding values for `CC[C@H](NC(=O)O[C@@H](CC1CCCCC1)C(=O)N1CCOCC1)C(=O)c1nc2ccc(C)cc2o1` [Example 47, 2-cyclohexyl-(1S)-(morpholine-4-carbonyl)ethyl(1S)-(6-methyl-benzoxazole-2-carbonyl)-propyl carbamate] are 2170 nM, 1.1 nM, 205 nM and above 30000 nM.
For the molecule `CC[C@H](NC(=O)O[C@@H](CC1CCCCC1)C(=O)N1CCOCC1)C(=O)c1nc2cc(Cl)ccc2o1` [Example 48, 2-cyclohexyl-(1S)-(morpholine-4-carbonyl)ethyl(1S)-(5-chloro-benzoxazole-2-carbonyl)-propyl carbamate], the inhibitory constant (Ki) came out at 2750 nM on Cathepsin L, 2.8 nM on Cathepsin S, 481 nM at Cathepsin K and 1880 nM on Cathepsin B.
The corresponding values for `CCC[C@H](NC(=O)O[C@@H](CC1CCCCC1)C(=O)N1CCOCC1)C(=O)c1nc2cc(F)ccc2o1` [Example 54, 2-cyclohexyl-(1S)-(morpholine-4-carbonyl)ethyl(1S)-(5-fluoro-benzoxazole-2-carbonyl)-butyl carbamate] are 2310 nM, 1.8 nM, 482 nM and 4360 nM.
In the same order, the values of `CC[C@H](NC(=O)O[C@@H](CC1CCCCC1)C(=O)N1CCCC1)C(=O)c1nc2ccc(F)cc2o1` [Example 55, (1S)-cyclohexylmethyl-2-oxo-2-(pyrrolidin-1-yl)-ethyl(1S)-(6-fluoro-benzoxazole-2-carbonyl)-propyl carbamate] are 3970 nM, 0.9 nM, 188 nM and 9090 nM.
